The target of experiment [1] is T1, Integrin alpha-IIb/beta-3 (Homo sapiens, UniProt P05106+P08514). The experiment can be described thus: Inhibition of biotinylated fibrinogen binding to isolated alpha IIb beta-3 integrin. The class given is protein-complex assay.
Target sequence in this assay (P05106 27-788 limits assumed): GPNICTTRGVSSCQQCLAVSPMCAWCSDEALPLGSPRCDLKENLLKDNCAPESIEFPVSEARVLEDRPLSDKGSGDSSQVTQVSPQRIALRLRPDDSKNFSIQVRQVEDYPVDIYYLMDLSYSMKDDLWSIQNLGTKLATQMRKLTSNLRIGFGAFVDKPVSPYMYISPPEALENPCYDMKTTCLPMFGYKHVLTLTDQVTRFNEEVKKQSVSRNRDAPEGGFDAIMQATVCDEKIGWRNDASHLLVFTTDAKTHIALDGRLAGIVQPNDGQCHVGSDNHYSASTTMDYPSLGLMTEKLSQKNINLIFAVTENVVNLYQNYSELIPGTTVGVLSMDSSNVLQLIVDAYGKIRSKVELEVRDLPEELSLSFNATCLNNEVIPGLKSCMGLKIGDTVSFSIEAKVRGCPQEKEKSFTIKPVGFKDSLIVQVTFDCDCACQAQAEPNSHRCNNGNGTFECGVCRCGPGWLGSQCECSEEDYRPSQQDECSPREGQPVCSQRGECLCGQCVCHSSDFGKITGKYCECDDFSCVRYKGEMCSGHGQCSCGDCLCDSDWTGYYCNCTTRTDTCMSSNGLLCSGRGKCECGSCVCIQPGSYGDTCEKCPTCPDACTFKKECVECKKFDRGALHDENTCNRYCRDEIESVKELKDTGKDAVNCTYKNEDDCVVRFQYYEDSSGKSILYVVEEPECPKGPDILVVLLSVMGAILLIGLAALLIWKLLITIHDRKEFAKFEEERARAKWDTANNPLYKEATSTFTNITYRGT
Target sequence in this assay (P08514 32-887 limits assumed): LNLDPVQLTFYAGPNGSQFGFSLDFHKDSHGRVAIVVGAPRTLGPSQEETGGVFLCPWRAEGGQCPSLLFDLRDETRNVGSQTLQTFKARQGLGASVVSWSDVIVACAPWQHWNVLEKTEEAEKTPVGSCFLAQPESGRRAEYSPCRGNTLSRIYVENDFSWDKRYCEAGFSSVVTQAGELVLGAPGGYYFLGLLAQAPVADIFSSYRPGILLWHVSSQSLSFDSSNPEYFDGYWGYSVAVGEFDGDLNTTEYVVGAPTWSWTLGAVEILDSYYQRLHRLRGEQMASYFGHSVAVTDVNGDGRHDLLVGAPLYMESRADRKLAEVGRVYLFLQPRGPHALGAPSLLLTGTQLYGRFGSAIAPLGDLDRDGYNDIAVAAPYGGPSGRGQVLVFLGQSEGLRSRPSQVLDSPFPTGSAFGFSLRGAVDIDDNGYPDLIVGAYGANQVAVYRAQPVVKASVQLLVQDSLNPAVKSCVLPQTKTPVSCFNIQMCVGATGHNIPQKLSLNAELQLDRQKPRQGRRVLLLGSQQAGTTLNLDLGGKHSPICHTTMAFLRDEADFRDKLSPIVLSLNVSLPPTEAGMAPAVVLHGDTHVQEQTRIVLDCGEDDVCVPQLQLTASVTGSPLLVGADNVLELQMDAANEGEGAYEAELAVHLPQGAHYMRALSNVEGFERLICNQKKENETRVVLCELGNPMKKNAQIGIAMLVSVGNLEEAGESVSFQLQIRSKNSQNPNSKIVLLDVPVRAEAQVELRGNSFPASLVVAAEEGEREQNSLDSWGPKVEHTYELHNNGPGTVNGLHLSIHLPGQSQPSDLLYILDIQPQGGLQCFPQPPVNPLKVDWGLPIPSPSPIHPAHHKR
Target sequence in this assay (P08514 891-1039 limits assumed): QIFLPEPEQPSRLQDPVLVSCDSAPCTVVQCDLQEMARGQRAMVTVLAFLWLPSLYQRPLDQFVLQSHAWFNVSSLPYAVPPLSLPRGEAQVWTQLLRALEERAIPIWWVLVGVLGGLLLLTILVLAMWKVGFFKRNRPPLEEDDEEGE
Experiment [2] is filed under the species Homo sapiens. The experiment can be described thus: Inhibition (at 10 uM) of thrombin-induced platelet aggregation. Type of experiment: functional.
Experiment [3] is filed under the species Homo sapiens. The experiment can be described thus: Compound was tested for inhibition of thrombin-induced platelet aggregation at the 1.0 uM Conc. Type of experiment: functional.
The species entered for experiment [4] is Homo sapiens. The experiment can be described thus: Inhibition (at 50 uM) of thrombin-induced platelet aggregation. Type of experiment: functional.
The species named for experiment [5] is Homo sapiens. The experiment can be described thus: Percent inhibition of thrombin-induced platelet aggregation at 50 uM. The class given is functional.
For experiment [6], the target named is T1, Integrin alpha-IIb/beta-3. The experiment can be described thus: (§1) Inhibition of fibrinogen binding to isolated integrin alphaIIb-beta3 at 50 uM. The class given is protein-complex assay.
Experiment [7] is filed under the species Homo sapiens. The experiment can be described thus: Percent inhibition of thrombin-induced platelet aggregation at 20 uM. Type of experiment: functional.
Experiment [8] has as its target T1, Integrin alpha-IIb/beta-3. The experiment is described as §1. The class given is protein-complex assay. The source holds these as a separate data set.
Target sequence in this assay (P05106 27-788 limits assumed): as the sequence (P05106 27-788 limits assumed) above
Target sequence in this assay (P08514 32-887 limits assumed): as the sequence (P08514 32-887 limits assumed) above
Target sequence in this assay (P08514 891-1039 limits assumed): as the sequence (P08514 891-1039 limits assumed) above
For experiment [9], the species on record is Homo sapiens. The experiment can be described thus: Inhibition of collagen-induced platelet aggregation […]. The class given is functional.
Experiment [10] is described as follows: Percent inhibition of thrombin-induced platelet aggregation at the Conc. of 0.1 uM.
Experiment in experiment [11]: as above
This is another data set of the same source.

pIC50: −log10 of the molar value. Peptide text beside a SMILES is read from it.

What is called pIC50 is the IC50 on a negative log10 scale, so that one unit is a factor of ten. As usually defined, the inhibition is the percentage by which the read-out fell short of the control. A low value points to a response near the control. With `NCCCC[C@H](N)C(=O)N1CCCC(C(=O)NCCC(=O)O)C1` (some centres undefined), the pIC50 in experiment [1] is 6.12. The inhibition at 10 µM in experiment [2] is 48%. For the same compound, in [3], the inhibition at 1 µM was 0%. In addition, in [4], 50 µM produced 87% inhibition.

`CC(C)(C)OC(=O)N[C@@H](CCCCN)C(=O)N1CCCC(C(=O)NCC(=O)O)C1` (some centres undefined): in experiment [1], the pIC50 is 4.30. Moreover, the inhibition at 10 µM in [2] turned out to be 7%. This compound gave an inhibition at 50 µM in experiment [4] of 24%.

In turn, `CC(C)(C)OC(=O)NC(CCCN=C(N)N)C(=O)NC12CC3CC(CC(NCC(=O)O)(C3)C1)C2` (centres undefined) returned an inhibition at 50 µM in [5] of 9%. Besides, in experiment [6], the inhibition came to 28%.

Take `CC(=O)N[C@@H](CCCCN)C(=O)N1CCCC(C(=O)NCCC(=O)O)C1` (some centres undefined): in experiment [1], the pIC50 was 6.47. 10 µM produced 67% inhibition in experiment [2]. The same compound showed an inhibition at 50 µM in experiment [4] of 87%.

The compound `CC(C)(C)OC(=O)NC(CCCCN)C(=O)NC12CC3CC(CC(NCC(=O)O)(C3)C1)C2` (centres undefined) registered an inhibition at 20 µM in experiment [7] of 40%.

On to `CC(C)(C)OC(=O)N[C@H](CCCCN)C(=O)N1CCCC(C(=O)NCCC(=O)O)C1` (some centres undefined), for which the negative-log IC50 (pIC50) in experiment [1] is 6.13. The compound also yielded an inhibition at 10 µM in experiment [2] of 12%. This compound also showed an inhibition at 50 µM in experiment [4] of 45%.

As for `CC(C)NCCCCC(NC(=O)OC(C)(C)C)C(=O)NC12CC3CC(CC(NCC(=O)O)(C3)C1)C2` (centres undefined), in [8], the negative logarithm of the IC50 (pIC50) was 4.52. Further, at 50 µM the inhibition in experiment [5] was 3%.

Take `CC(C)(C)OC(=O)N[C@H](CCCCN)C(=O)N1CCCC(C(=O)NCCCC(=O)O)C1` (some centres undefined): the inhibition at 50 µM in [1] stood at 59%; in [4], 0%. The inhibition at 10 µM in experiment [2] was determined as 0%.

`CC(C)NCCCC[C@@H](NC(=O)OC(C)(C)C)C(=O)N1CCCC(C(=O)NCCC(=O)O)C1` (some centres undefined): the inhibition at 5 µM in experiment [1] was 20%. Besides, testing at 10 µM in experiment [2] gave an inhibition of 6%. For the same compound, at 50 µM the inhibition in [4] was 4%.

Compound `COC(=O)CC(NC(=O)CNC12CC3CC(C1)CC(NC(=O)C(CCCCN)NC(=O)OCC1c4ccccc4-c4ccccc41)(C3)C2)C(=O)NC(C(=O)OC)C(C)C` (centres undefined) had an inhibition at 50 µM in experiment [5] of 15%. Further, the inhibition in experiment [6] is 0%.

For the compound H-HHLGGAKQAGDV-OH, in experiment [1], the pIC50 was 5.39.

`COC(=O)CNC12CC3CC(C1)CC(NC(=O)C(CCCCN)NC(=O)OCC1c4ccccc4-c4ccccc41)(C3)C2` (centres undefined) gave an inhibition at 50 µM in [5] of 25%. Also, the inhibition in experiment [6] amounted to 1%.

In [1], `N=C(N)NCCC[C@H](N)C(=O)NCC(=O)N[C@@H](CC(=O)O)C(=O)N[C@@H](CS)C(=O)O` (H-RGDC-OH) gave a pIC50 of 6.00.

With `NCCCCCC(=O)N1CCCC(C(=O)NCCC(=O)O)C1` (centres undefined), at 10 µM the inhibition in experiment [2] was 87%. This compound also displayed an inhibition at 1 µM in experiment [3] of 29%. This compound displayed an inhibition at 50 µM in experiment [4] of 88%.

In experiment [1], `CC(C)(C)OC(=O)N[C@@H](CCCCN)C(=O)N1CCC[C@H](C(=O)NCCC(=O)O)C1` showed a pIC50 of 7.55. For the same compound, the inhibition at 10 µM in experiment [2] was 87%. Testing at 1 µM in [3] gave an inhibition of 11%. In [4], the inhibition at 50 µM was 91%.

`NCCCCC(NC(=O)OCc1ccccc1)C(=O)NC12CC3CC(C1)CC(N(CC(=O)O)C(=O)COc1ccccc1)(C3)C2` (centres undefined) had an inhibition at 50 µM in experiment [5] of 2%. This compound showed an inhibition in experiment [6] of 33%.

Take `C[C@H](NC(=O)OCC1c2ccccc2-c2ccccc21)C(=O)N[C@@H](CCCCN)C(=O)NC12CC3CC(CC(NCC(=O)O)(C3)C1)C2`: 50 µM produced 37% inhibition in experiment [5]. The compound also gave an inhibition in experiment [6] of 42%.

`CC(=O)N[C@H](CCCCN)C(=O)N1CCCC(C(=O)NCCC(=O)O)C1` (some centres undefined): the pIC50 in experiment [1] was 7.13. Further, the inhibition at 10 µM in [2] turned out to be 30%. For the same compound, in [3], 1 µM produced 4% inhibition. Also, the inhibition at 50 µM in experiment [4] was 88%.

Compound `CC(C)(C)OC(=O)N[C@@H](CCCCNC(=O)OCc1ccccc1)C(=O)N1CCC[C@@H](C(=O)NCCC(=O)O)C1` showed a pIC50 in [1] of 4.70.

In the case of `NCCCCC(NC(=O)OCc1ccccc1)C(=O)NC12CC3CC(CC(NCC(=O)O)(C3)C1)C2` (centres undefined), in experiment [5], at 50 µM the inhibition was 24%. In experiment [6], this compound registered an inhibition of 26%.

As to `CC(=O)N[C@H](CCCCN)C(=O)N1CCCC(C(=O)NCC(=O)O)C1` (some centres undefined), the figures for the inhibition at 50 µM in [1] and in experiment [4] were 24% and 4%, respectively.

Regarding `COC(=O)[C@H](CC(=O)O)NC(=O)C1CCCN(C(=O)[C@H](CCCCN)NC(=O)OC(C)(C)C)C1` (some centres undefined), the pIC50 in experiment [1] is 7.54; in experiment [9] it was 5.58. Also, in experiment [2], the inhibition at 10 µM was determined as 32%. In [3], the inhibition at 1 µM stood at 2%. The inhibition at 50 µM in experiment [4] is 87%.

`CC(C)(C)OC(=O)N[C@@H](CCCCN)C(=O)N1CCCC(C(=O)NCCCC(=O)O)C1` (some centres undefined) yielded an inhibition at 10 µM in [2] of 7%. In [4], this compound came in with an inhibition at 50 µM of 43%.

As for `O=C(O)CCNC(=O)C1CCCN(C(=O)CCC2CCNCC2)C1` (centres undefined), the pIC50 in [1] is 8.05; in [9], 6.85. The compound further showed an inhibition at 0.1 µM in [10] of 4%. This compound also came in with an inhibition at 10 µM in experiment [2] of 89%. In experiment [3], this compound showed an inhibition at 1 µM of 89%. Also, in experiment [4], the inhibition at 50 µM came out at 91%.

`CC(C)(C)OC(=O)N[C@H](CCCN=C(N)N)C(=O)N1CCCC(C(=O)NCCC(=O)O)C1` (some centres undefined) showed a pIC50 in [1] of 5.57. Testing at 10 µM in experiment [2] gave an inhibition of 0%. Besides, 50 µM produced 17% inhibition in [4].

On to `O=C(O)CNC12CC3CC(C1)CC(NC(=O)CCC1CCNCC1)(C3)C2`, for which at 50 µM the inhibition in experiment [5] was 5%. The compound also displayed an inhibition in experiment [6] of 49%.

Take `CC(C)(C)OC(=O)N[C@@H](CCCCN)C(=O)N1CCC[C@@H](C(=O)NCCC(=O)O)C1`: at 0.1 µM the inhibition in experiment [11] was 2%. Moreover, the pIC50 in experiment [1] is 8.10; in [9], 6.66. This compound had an inhibition at 10 µM in experiment [2] of 87%. In [3], this compound had an inhibition at 1 µM of 45%. In experiment [4], this compound returned an inhibition at 50 µM of 91%.

`CC(C)(C)OC(=O)N[C@@H](CCCCN)C(=O)N1CCCC(C(=O)NCCC(=O)O)C1` (some centres undefined): the pIC50 in experiment [1] was 7.54; in experiment [9], 6.46. In [2], this compound gave an inhibition at 10 µM of 87%. In experiment [3], this compound came in with an inhibition at 1 µM of 21%. The compound also had an inhibition at 50 µM in experiment [4] of 88%.

In the case of `NCCCC[C@@H](N)C(=O)N1CCCC(C(=O)NCCC(=O)O)C1` (some centres undefined), the pIC50 in experiment [1] was 5.59. The compound further returned an inhibition at 10 µM in experiment [2] of 1%. Further, in experiment [4], testing at 50 µM gave an inhibition of 8%.

`NCCCCCC(=O)N1CCCC(CNCCC(=O)O)C1` (centres undefined) returned an inhibition at 10 µM in experiment [2] of 24%. Also, the inhibition at 50 µM in [4] was 63%.
